Measured values reported in US10016440B2, “Methods of enhancing antibody-dependent cellular cytotoxicity” (VentiRx Pharmaceuticals, Inc., priority 2010, dated 2018).

Assays:
Assay type in all cases: cell-based, human
[1] = system: rituximab-coated HS-Sultan cells; test: Rituximab-mediated ADCC of HS-Sultan cells with PBMC from donors genotyped for FcgR polymorphisms; conditions: for baseline ADCC (percent specific lysis): buffer control, E:T 50:1 (FIG. 4); for rituximab-mediated ADCC activity: unstimulated PBMC
Method: Percent specific lysis is shown for Rituxan-coated HS-Sultan cells incubated with PBMC effector cells at an E:T ratio of 50:1. PBMCs from a patient with the high affinity genotype FcgR2a131 H/H and FcgR3a V/V (solid rectangles) or a patient with the lower affinity genotype FcgR2a131 […] and FcgR3a V/F (open rectangles) were evaluated for ADCC after stimulation with buffer control (baseline) or stimulation with 500 nM ADCC enhancer.
ADCC is mediated through immune effector cells included NK cells that engage the Fc portion of the monoclonal antibody through specific receptors. Patients with single nucleotide polymorphisms in these receptors such as FcRgamma3a position 158 and FcRgamma2a position 131 have a poorer clinical prognosis presumably from poor ADCC due to a lower affinity of the receptor for the monoclonal antibody. […] To determine if this common polymorphism affects the baseline antibody-dependent cellular cytoxicity (ADCC) response and/or response to the ADCC enhancer molecule of the present invention (Compound VTX-2337), PBMCs from donors were genotyped for the two alleles encoding the F and V isoforms, respectively, and tested in vitro. We analyzed rituximab-mediated ADCC using unstimulated PBMC or VTX-2337-stimulated PBMC from 15 donors, including 10 donors with FF or FV phenotype and 5 donors with VV phenotype.
Blood was collected from healthy donors and PBMCs were isolated using a Ficoll gradient. PBMCs were activated by culturing them in the presence of 500 nM VTX-2337 at 37° C. in a humidified 5% CO2 incubator for 48 hours. Activated PBMCs were then incubated with rituximab-coated HS-Sultan cells loaded at a ratio of 100:1 for 4 hours. Lysis was determined by measuring release of the fluorescent dye Calcein AM from the HS-Sultan cells.

[2] = system: breast cancer cell line SKBR3; test: Herceptin-mediated ADCC of SKBR3 cells by PBMC effector cells (Calcein AM release); conditions: PBMCs activated with the ADCC enhancer (FIG. 3)
Method: (§1) Human Peripheral blood mononuclear cells (PBMCs) were isolated by Ficoll™ density gradient centrifugation and resuspended in RPMI containing 2% heat-inactivated FBS. PBMCs at a concentration of 1 to 3 million cells per mL were incubated with 10-500 nM ADCC enhancer in a humidified CO2 incubator for 18-72 hrs. Activated PBMCs were then used as effector cells in NK and ADCC assays. PBMCs activated with the ADCC enhancer were tested for the ability to enhance killing of the NK sensitive target cell line K562 or various tumor cells coated with monoclonal antibodies. Target cells were labeled with the fluorescent dye Calcein AM for 1 hour at 37° C. in a dark humidified CO2 incubator. […] Activated effector cells and labeled target cells were incubated in 96-well tissue culture plates at for 4 hours at 37° C. in a dark humidified CO2 incubator in an assay buffer containing HBSS+Ca/Mg+5% FBS. […] Fluorecence was quantified with a fluorescent microtiter plate reader. The % specific lysis was calculated as (Sample fluorescence-spontaneous fluorescence)*100/(100% fluorescence-spontaneous). 100% fluorescence was determined from wells that contained labeled target cells and detergent such at 0.1% Tween-20 or Triton X-100. Spontaneous fluorescence was determined from wells that contained assay buffer and target cells but not effector cells.

[3] = system: breast cancer cell line MDA-MB-231; test: Herceptin-mediated ADCC of MDA-MB-231 cells by PBMC effector cells (Calcein AM release); conditions: PBMCs activated with the ADCC enhancer (FIG. 3)
Method: as §1

| Compound | baseline ADCC (percent specific lysis) ([1]; patient with high affinity genotype FcgR2a131 H/H and FcgR3a V/V) | baseline ADCC (percent specific lysis) ([1]; patient with lower affinity genotype FcgR2a131 A/A and FcgR3a V/F) | rituximab-mediated ADCC activity ([1]; FF/FV donors, E:T 100:1 (FIG. 5)) | rituximab-mediated ADCC activity ([1]; VV donors, E:T 100:1 (FIG. 5)) | killing of Herceptin coated SKBR3 targets [2] | killing of Herceptin coated MDA-MB-231 targets [3] | rituximab-mediated ADCC ([1]; PBMC stimulated with 500 nM VTX-2337 for 48 hours, low affinity FF/FV group, E:T 100:1 (FIG. 5)) |
| --- | --- | --- | --- | --- | --- | --- | --- |
| Rituxan: anti-CD20 monoclonal antibody rituximab (Rituxan) | approximately 30% | 10% | 20.5±2.5 % specific lysis | 31.7±2.9 % specific lysis |  |  |  |
| CCCN(CCC)C(=O)C1=Cc2ccc(-c3ccc(C(=O)N4CCCC4)cc3)cc2N=C(N)C1 [ADCC enhancer, {2-amino-8-[4-(pyrrolidinylcarbonyl)phenyl]-(3H-benzo[f]azepin-4-yl)}-N,N-dipropylcarboxamide] |  |  |  |  | > 80% | 40-60% | 40.0±4.1% |
